Reference: patent EP4800015A1, “AZABICYCLO DERIVATIVE AND PREPARATION METHOD THEREFOR, AND USE” (Zhejiang Hisun Pharmaceutical Co., Ltd., priority 2023, dated 2025)

Tests used:
[1] = Metabolic stability in dog liver microsomes; type: in vitro ADME; conditions: dog liver microsomes 0.5 mg mL^-1, NADPH 1 mM, 0-60 min; read-out: Liver microsomal stability t1/2 (min) Dog
Protocol: (§1) The purpose of this study was to investigate the metabolic stability of the compounds of the present disclosure in human and dog liver microsomes.
(§2) The compounds were co-incubated with human (or dog) liver microsomes, and the reaction was initiated by adding coenzyme NADPH (1 mM). At 0, 5, 15, 30, and 60 minutes, 60 µL of incubation solution was removed, and 180 µL of acetonitrile containing internal standard (clopidogrel) was added to quench the reaction, the mixture was shaken for 10 seconds, centrifuged at 10000 rpm for 10 minutes, and the supernatant was taken for analysis by LC-MS/MS. The in vitro intrinsic clearance was calculated based on the elimination half-life of the test compound in the incubation system. Midazolam was used as an internal reference compound, with two parallel incubations for each. Incubation conditions are summarized in Table 6 below: Table 6 Incubation conditions for the example compounds of the present disclosure
(§3) The ratio of the peak area of analyte to internal standard (Aanalyte/AIS) was obtained from the instrument, and the remaining percentage (%Control) was calculated from the ratio of Aanalyte/AIS in non-zero time point samples to zero time samples. Ln (%Control) was plotted against incubation time and linearly fitted. The test compound clearance constant (k, min^-1) and clearance half-life (T1/2, min) were calculated using the following equations. k = −slope [formula] T1/2 = 0.693/k. [formula]

[2] = target: T1, recombinant human WRN (Homo sapiens, UniProt Q14191); assay: Inhibition of WRN enzyme activity (ATPase), ADP-Glo Kinase Assay; type: biochemical; conditions: WRN protein 5 nM, Flap 0.1 nM, ATP 30 µM; read-out: IC50
T1 construct: purchased BPS 101264
T1 sequence (Q14191 whole entry): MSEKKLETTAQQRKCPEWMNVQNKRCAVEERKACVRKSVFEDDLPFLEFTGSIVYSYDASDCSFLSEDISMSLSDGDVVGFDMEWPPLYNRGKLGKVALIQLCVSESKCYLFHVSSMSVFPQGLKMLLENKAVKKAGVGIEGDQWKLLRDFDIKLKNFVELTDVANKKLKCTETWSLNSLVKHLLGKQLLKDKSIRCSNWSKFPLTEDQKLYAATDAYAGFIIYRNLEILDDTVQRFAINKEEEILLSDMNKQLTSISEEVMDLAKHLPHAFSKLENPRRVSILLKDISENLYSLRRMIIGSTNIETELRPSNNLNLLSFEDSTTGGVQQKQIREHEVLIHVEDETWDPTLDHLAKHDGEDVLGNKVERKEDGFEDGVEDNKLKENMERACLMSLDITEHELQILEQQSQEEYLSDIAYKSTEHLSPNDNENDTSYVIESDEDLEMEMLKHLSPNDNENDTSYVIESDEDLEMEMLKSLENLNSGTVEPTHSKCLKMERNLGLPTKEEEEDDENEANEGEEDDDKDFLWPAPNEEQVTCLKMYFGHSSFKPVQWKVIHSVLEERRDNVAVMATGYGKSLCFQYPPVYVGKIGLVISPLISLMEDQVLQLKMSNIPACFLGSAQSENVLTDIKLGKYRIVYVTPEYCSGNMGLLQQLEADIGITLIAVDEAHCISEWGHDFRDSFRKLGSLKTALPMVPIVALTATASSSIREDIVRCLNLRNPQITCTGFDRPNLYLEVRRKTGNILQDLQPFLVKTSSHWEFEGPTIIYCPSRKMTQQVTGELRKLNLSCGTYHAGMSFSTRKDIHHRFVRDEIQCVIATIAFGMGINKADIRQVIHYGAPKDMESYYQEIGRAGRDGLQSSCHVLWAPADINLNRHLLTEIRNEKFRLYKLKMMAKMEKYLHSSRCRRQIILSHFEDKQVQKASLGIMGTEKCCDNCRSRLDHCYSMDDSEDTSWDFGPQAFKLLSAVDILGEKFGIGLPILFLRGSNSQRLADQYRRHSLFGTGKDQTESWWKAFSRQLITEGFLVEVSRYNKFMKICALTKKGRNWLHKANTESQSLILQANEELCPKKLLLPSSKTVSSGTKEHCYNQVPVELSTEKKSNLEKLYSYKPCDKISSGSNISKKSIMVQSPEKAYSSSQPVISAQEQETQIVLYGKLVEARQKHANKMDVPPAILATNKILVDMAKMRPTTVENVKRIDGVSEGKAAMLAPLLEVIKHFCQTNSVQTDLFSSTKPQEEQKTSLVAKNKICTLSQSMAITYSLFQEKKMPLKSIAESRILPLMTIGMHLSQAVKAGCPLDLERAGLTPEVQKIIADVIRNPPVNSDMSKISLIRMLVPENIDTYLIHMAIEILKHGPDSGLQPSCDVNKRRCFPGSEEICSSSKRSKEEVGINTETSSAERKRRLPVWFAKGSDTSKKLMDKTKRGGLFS
How it was run: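 ATPase activity was measured by ADP-Glo luminescence after a 10-min room-temperature reaction with 30 µM ATP and 0.1 nM Flap26 oligonucleotide substrate. The 5 nM WRN had first been exposed to compound (0.004–1000 nM) for 15 min in pH 7.5 Tris buffer with 2 mM MgCl2. IC50 values came from log-concentration regression against the DMSO control.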

[3] = tested on: SW48 cells; assay: Inhibition of SW48 cell proliferation (CellTiter-Glo); type: cell-based; conditions: Homo sapiens; SW48 cells (MSI-H), 120 hours
How it was run: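 SW48 (MSI-H) cells in L-15 with 10% FBS were seeded at 500 per well, cultured overnight at 37 °C, then exposed to compound at final concentrations of 10000 nM to 1.52 nM for 120 h. Viability was read by CellTiter-Glo luminescence, with inhibition relative to 0.1% DMSO. IC50 from nonlinear regression of log concentration versus inhibition.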

[4] = Metabolic stability in human liver microsomes; type: in vitro ADME; conditions: human liver microsomes 0.5 mg mL^-1, NADPH 1 mM, 0-60 min; read-out: Liver microsomal stability t1/2 (min) Human
Protocol: as §1, §2, §3

[5] = tested on: RL95-2 cells; assay: Inhibition of RL95-2 cell proliferation (CellTiter-Glo); type: cell-based; conditions: Homo sapiens; RL95-2 cells (MSI-H), 120 hours
How it was run: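 Proliferation IC50 derived by nonlinear regression of % inhibition against log concentration, with 0.1% DMSO wells as reference. CellTiter-Glo luminescence was read after 120 h of compound exposure (10000 nM down to 1.52 nM final) at 37 °C. MSI-H RL95-2 cells seeded at 500/well in DMEM/F12 with 10% FBS the day before.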

[6] = Pharmacokinetic test in mice after intragastric administration; type: in vivo; conditions: male, mouse, plasma, ICR mice, Oral (10 mg/kg); for AUC(0-t): read-out: Area under curve AUC0-t; for half-life: read-out: Half-life T1/2 (converted); for Cmax: read-out: Plasma concentration Cmax
Protocol: ICR mice were used as test animals, the plasma concentrations of the control compound HRO761 and the compounds of the present disclosure at different time points after intragastric administration were determined by LC/MS/MS method, and the pharmacokinetic characteristics of the compounds of the present disclosure in mice were studied.
ICR mice, male, 30.8 to 38.0 g, purchased from Vital River Laboratory Animal Technology Co., Ltd.
An appropriate amount of the test compound was weighed, and an appropriate amount of DMA (N,N-dimethylacetamide), 30% Solutol HS15 (30% polyethylene glycol-15 hydroxystearate), and Saline (saline) were added sequentially, the mixture was ultrasonicated and vortex mixed to prepare a 1 mg/mL dosing formulation. The ratio of DMA:30% Solutol HS15:Saline was 5:5:90 (v/v/v).
After overnight fasting, ICR mice in each test compound injection group (9 mice per group) were administered intragastrically (PO, compound dose was 10 mg/kg, administration volume was 10 mL/kg), and food was given 4 hours after administration.
About 0.1 mL of blood was collected via the orbital cavity before administration and at 0.25 h, 0.5 h, 1 h, 2 h, 4 h, 8 h, 10 h, and 24 h after administration, and whole blood samples were placed in anticoagulant tubes containing EDTA-K2. The samples were placed on ice after collection, and plasma was separated by centrifugation (centrifugation conditions: 1500 g, 10 minutes). The collected plasma was stored at -40 to -20 °C before analysis.
The content of the test compound in mouse plasma after intragastric administration was determined by LC-MS/MS.

[7] = tested on: Caco-2 monolayer cell model; assay: Caco-2 bidirectional permeability and efflux ratio; type: in vitro ADME; conditions: Caco-2, conclusion
Protocol: (§4) The bidirectional permeability and efflux ratio of the example compounds and control compound were determined in a Caco-2 monolayer cell model.
(§5) Caco-2 cells (cultured at Shanghai Medicilon Inc.) were recovered in the experiment. After the cells were in good condition, they were digested, and the cell density was adjusted (1 × 10^5 cells/cm^2). Caco-2 cells were seeded into Transwell chambers and placed in 24-well plates for cultivation. After continuous cultivation for about 21 days, TEER values were measured one day before the experiment to ensure formation of a confluent cell monolayer for transport experiments (TEER > 200 Ω·cm^2). Test compounds were diluted from 10 mM stock solutions to 10 µM concentration using transport buffer (HBSS containing BSA) (metoprolol and atenolol were set as positive compounds). For efflux determination, 0.6 mL of compound dilution solution was added to the outer well (side B), and 0.4 mL of blank transport buffer was added to the Transwell chamber. For absorption determination, 0.4 mL of transport buffer containing compound was added to the Transwell chamber, and 0.6 mL of blank transport buffer was added to the outer side. After setup, the 24-well plates were cultivated at 37 °C and 5% CO2 with 95% relative humidity for 120 minutes, and permeability of test compounds from A to B direction or B to A direction was measured, respectively, with two duplicate wells set for each direction. Liquid in Transwell chambers and 24-well plates was collected separately, 60 µL each, and 180 µL of acetonitrile (containing internal standard) was added, vortexed for 1 min, then centrifuged at 4 °C, 10000 rpm for 10 min. The supernatant was taken, filtered through a 0.22 µm membrane, and placed in vials for testing. The content of the compounds in each Transwell chamber and 24-well plate was determined by liquid chromatography-tandem mass spectrometry (LC-MS/MS). Table 4 Permeability data of compounds of the present disclosure

[8] = Caco-2 bidirectional permeability and efflux ratio; type: in vitro ADME; conditions: human, Caco-2, 10 µM, 120 minutes; for efflux ratio at 120 min, 10 µM: read-out: Efflux ratio Papp(B-A)/ Papp(A-B); for Papp A→B at 120 min, 10 µM: A to B; for Papp B→A at 120 min, 10 µM: B to A
Protocol: as §4, §5

Row | Compound | half-life [1] | IC50 [2] | IC50 [3] | half-life [4] | IC50 [5] | AUC(0-t) [6] | half-life [6] | Cmax [6] | efflux (in words) [7] | permeability (in words) [7] | efflux ratio at 120 min, 10 µM [8] | Papp A→B at 120 min, 10 µM [8] | Papp B→A at 120 min, 10 µM [8]
1 | CCc1c(N2CCN(C(=O)c3ncnc(C)c3O)CC2)c(=O)n2nc(-c3ccc4ncsc4c3)nc2n1CC(=O)Nc1ccc(C(F)(F)F)cc1Cl [Example 125, 2-(2-(benzo[d]thiazol-6-yl)-5-ethyl-6-(4-(5-hydroxy-6-methylpyrimidine-4-carbonyl)piperazin-1-yl)-7-oxo-[1,2,4]triazolo[1,5-a]pyrimidin-4(7H)-yl)-N-(2-chloro-4-(trifluoromethyl)phenyl)acetamide] | 182 min | < 1 nM | 1 to 100 nM | 705 min | 1 to 100 nM |  |  |  |  |  |  |  | 
2 | CCc1c(N2CCN(C(=O)c3ncnc(C)c3O)CC2)c(=O)n2nc(-c3ccc4ccoc4c3)nc2n1CC(=O)Nc1ccc(C(F)(F)F)cc1Cl [Example 68, 2-(2-(benzofuran-6-yl)-5-ethyl-6-(4-(5-hydroxy-6-methylpyrimidine-4-carbonyl)piperazin-1-yl)-7-oxo-[1,2,4]triazolo[1,5-a]pyrimidin-4(7H)-yl)-N-(2-chloro-4-(trifluoromethyl)phenyl)acetamide] |  | < 1 nM |  |  | 1 to 100 nM | 98900 ng·h/mL | 2.41 h | 17300 ng/mL | no significant efflux | moderate permeability | 1.1 | 4.64 ×10⁻⁶ cm/s | 5.09 ×10⁻⁶ cm/s
3 | CCc1c(N2CCN(C(=O)c3ncnc(C)c3O)CC2)c(=O)n2nc(C3=CCOCC3)nc2n1CC(=O)Nc1ccc(C(F)(F)F)cc1Cl [HRO761, reference compound] | 175 min |  |  | 483 min |  | 15600 ng·h/mL | 2.81 h | 7010 ng/mL | apparent potential efflux properties | moderate permeability | 3.65 | 3.96 ×10⁻⁶ cm/s | 14.5 ×10⁻⁶ cm/s
4 | CCc1c(N2CCN(C(=O)c3ncnc(C)c3O)CC2)c(=O)n2nc(-c3ccc4occc4c3)nc2n1CC(=O)Nc1ccc(C(F)(F)F)cc1Cl [Example 67, 2-(2-(benzofuran-5-yl)-5-ethyl-6-(4-(5-hydroxy-6-methylpyrimidine-4-carbonyl)piperazin-1-yl)-7-oxo-[1,2,4]triazolo[1,5-a]pyrimidin-4(7H)-yl)-N-(2-chloro-4-(trifluoromethyl)phenyl)acetamide] | 318 min | < 1 nM |  | 657 min | 1 to 100 nM | 83400 ng·h/mL | 0.66 h | 31400 ng/mL |  |  |  |  | 
5 | CCc1c(N2CCN(C(=O)c3ncnc(C)c3O)CC2)c(=O)n2nc(-c3ccc4c(c3)CCO4)nc2n1CC(=O)Nc1ccc(C(F)(F)F)cc1Cl [Example 76, N-(2-chloro-4-(trifluoromethyl)phenyl)-2-(2-(2,3-dihydrobenzofuran-5-yl)-5-ethyl-6-(4-(5-hydroxy-6-methylpyrimidine-4-carbonyl)piperazin-1-yl)-7-oxo-[1,2,4]triazolo[1,5-a]pyrimidin-4(7H)-yl)acetamide] | 200 min | 1 to 100 nM |  | 999 min | 1 to 100 nM |  |  |  |  |  |  |  | 
